Assay results taken from US20230310293A1, “COOLING SENSATION COMPOSITIONS” (GIVAUDAN SA, priority 2020, published 2023).

Test: Solubility of non-natural cooling compounds in lactic acid
Format: physicochemical
Conditions: warmed to about 50° C. with gentle agitation for 1 hour per step, highest tested weight % that dissolved
Procedure: Into a 20ml vial 0.4 g of the respective non-natural cooling compound as indicated in Table 1 below have been added followed by the addition of 1.6 g lactic acid. The vial was warmed to about 50° C. with gentle agitation for 1 hour. If the respective non-natural cooling compound hasn’t dissolved, 2 g lactic acid was added (resulting in a composition comprising 10 weight % of a non-natural cooling compound), and again gentle agitated for an additional hour at about 50° C. If the non-natural cooling compound still hasn’t dissolved, 4 g of lactic acid was added (resulting in a composition comprising 5 weight % of anon-natural cooling compound), and again gentle agitated for an additional hour at about 50° C.
If the non-natural cooling compound still has not dissolved, the procedure above has been repeated, starting with 0.05 g of the non-natural cooling compound and 0.95 g of lactic acid. If still not dissolved, 1 g lactic acid was added (resulting in a composition comprising 2.5 weight % of a non-natural cooling compound). If still not dissolved further solvent was added.
If 0.4 g the non-natural cooling compound dissolved in 1.6 g lactic acid, the procedure above has been repeated, starting with 1 g of the non-natural cooling compound and 1 g lactic acid. If the respective non-natural cooling compound hasn’t dissolved, 0.5 g lactic acid was added (resulting in a composition comprising 40 weight % of a non-natural cooling compound), and again gentle agitated for an additional hour at about 50° C. If the non-natural cooling compound still hasn’t dissolved, 0.83 g of lactic acid was added (resulting in a composition comprising 30 weight % of anon-natural cooling compound), and again gentle agitated for an additional hour at about 50° C.

| Compound | Soluble solution (solubility of non-natural cooling compound in lactic acid) |
| --- | --- |
| CCc1ccc(OCC(=O)N(Cc2cccs2)c2cc[nH]n2)cc1 [2-(4-ethylphenoxy)-N-(1H-pyrazol-3-yl)-N-(thiophen-2-ylmethyl)acetamide] | 5 wt% wt % |
| CC1CCC(C(C)C)C(C(=O)NCCc2ccccn2)C1 (stereo not shown) [2-isopropyl-5-methyl-N-(2-(pyridin-2-yl)ethyl)cyclohexane-1-carboxamide] | 20 wt % |
| CC1CCC(C(C)C)C(OC(=O)C(C)O)C1 (stereo not shown) [2-isopropyl-5-methylcyclohexyl 2-hydroxypropanoate] | 20 wt% wt % |
| CCC(C)C(=O)N1CCCCC1c1ncc(-c2ccc(C)cc2)[nH]1 (stereo not shown) [2-methyl-1-(2-(5-(p-tolyl)-1H-imidazol-2-yl)piperidin-1-yl)butan-1-one] | 50 wt % |
| CC(C)C1CCC(C)(C)CC1C(=O)NCC(O)c1ccccc1 (stereo not shown) [N-(2-hydroxy-2-phenylethyl)-2-isopropyl-5,5-dimethylcyclohexane-1-carboxamide] | 5 wt% wt % |
| CC1CCC(C(C)C)C(C(=O)Nc2ccc(CC(N)=O)cc2)C1 (stereo not shown) [N-(4-(2-amino-2-oxoethyl)phenyl)-2-isopropyl-5-methylcyclohexane-1-carboxamide] | 2.5 wt% wt % |
| CCNC(=O)C1CC(C)CCC1C(C)C (stereo not shown) [N-Ethyl-p-menthane-3-carboxamide] | 10 wt% wt % |
| CCOC(=O)CNC(=O)C1CC(C)CCC1C(C)C (stereo not shown) [ethyl (2-isopropyl-5-methylcyclohexane-1-carbonyl)glycinate] | 20 wt% wt % |

Continued, values first:

| Soluble solution (solubility of non-natural cooling compound in lactic acid) | Compound |
| --- | --- |
| 30 wt % | C=CC(C)(C)C(=O)N1CCCCC1c1ncc(-c2ccc(C)cc2)[nH]1 (stereo not shown) [2,2-dimethyl-1-(2-(5-(p-tolyl)-1H-imidazol-2-yl)piperidin-1-yl)but-3-en-1-one] |
| 50 wt % | CSC(C)C(=O)N1CCCCC1c1ncc(-c2ccc(C)cc2)[nH]1 (stereo not shown) [2-(methylthio)-1-(2-(5-(p-tolyl)imidazol-2-yl)piperidin-1-yl)propan-1-one] |
| 20 wt% wt % | CNC(=O)C(C)(C(C)C)C(C)C [2-isopropyl-N,2,3-trimethylbutanamide] |
| 40 wt % | CSC(C)(C)C(=O)N1CCCCC1c1ncc(-c2ccc(C)cc2)[nH]1 (stereo not shown) [2-methyl-2-(methylthio)-1-(2-(5-(p-tolyl)-1H-imidazol-2-yl)piperidin-1-yl)propan-1-one] |
| 30 wt % | Cc1ccc(OCC(=O)N(Cc2cccs2)c2ccn[nH]2)cc1 [N-(1H-pyrazol-3-yl)-N-(thiophen-2-ylmethyl)-2-(p-tolyloxy)acetamide] |
